Measurements as given in patent publication US20020006942A1, “Methods of treating liver disorders and disorders associated with liver function” (priority 2000, published 2002).

Columns and labels:
CYP7A1 = conditions: bile acid infused; Heuman et al., 1989; cited from earlier work
hepatic CYP7A1 mRNA = assay: Hepatic CYP7A1 mRNA relative to GAPDH in C57BL/6 mice on chow or bile acid-containing atherogenic diet; format: in vivo, mouse; conditions: chow-fed mice, 1 mg/ml daily by oral gavage, p=ns
Source text: Female C3H/HeJ and [MUT] mice 10-12 weeks old (Jackson Laboratory, Bar Harbor, Me.) were housed in a room with a normal light cycle (lights on from 0600 to 1800) fed water ad libitum with either normal Purina breeder chow or ground Purina breeder chow supplemented with 20% olive oil, 2% cholesterol and 0.5% taurocholic acid (bile acid-contaning atherogenic diet) and water ad libitum. Mice were maintained on this diet for 3 weeks. After 3 weeks, mice were sacrificed at 0900. […] Mice were sacrificed at 0900 and blood was obtained for subsequent analysis. Livers were extracted for RNA, and polyA RNA was isolated, as described (Dueland, et al., 1993, J. Lipid.Res. 34:923-931; Dueland, et al., 1997, J. Lipid Res. 38:1445-1453). Poly A MRNA was blotted onto nitrocellulose and probed with ^32P-labeled cDNA encoding rat CYP7A1 and GAPDH (Duelandet al., 1993, J. Lipid Res. 34:923-931; Dueland, et al., 1997, J. Lipid Res. 38:1445-1453). The relative abundance of CYP7A1 mRNA to GAPDH mRNA was determined using Phosphorimager quantitation (Molecular Biosystems).

[1] = system: CYP7A1 mRNA expression by rat hepatoma L35 cells; assay: Direct treatment of L35 cells, CYP7A1 mRNA relative to β-actin; format: cell-based
[2] = system: cytokine mRNAs (TNFα, TGF-β1, IL1β) in THP-1 cells; assay: Cytokine mRNA expression by THP-1 cells (RNase protection assay); format: cell-based, human; conditions: 100 μM, 48 h
Source text: Hepatic cytokine mRNAs were quantitated using RNase protection assays, as follows. In vitro transcribed [α-^32P]-UTP labeled -antisense cytokine probes were generated using cytokine multi-probe template kits: Mouse mCK-2 (catalog # 45002P) and Mouse mCK-3 (catalog #45003P) (PharMingen International) and a MAXIscript in vitro transcription kit (catalog #1314) using T7 RNA polymerase per manufacturer instructions. The radiolabeled probes were eluted through G25 Sephadex columns (Boehringer Mannheim) to remove unincorporated nucleotides. RNase protection assays were performed with HybSpeed RPA kits (catalog #1412) (Ambion Inc.) according to the manufacturers specifications. For each reaction, 20 fig of total RNA was hybridized to approximately 50,000 cpm of the antisense cytokine probes and digested with a mixture of RNase A and RNase T1. The protected RNA fragments were separated via a 5% denaturing acrylamide gel. PhosporImager (Molecular Dynamics) analysis was used to visualize the protected RNA fragments. […] Cells were harvested and polyA mRNA extracted, as described above. The content of human cytokines mRNAs were quantited by RNase protection assays, as described above except human template kits were used (Human hCK-2-catalog # 45032P and Human hCK-3-catalog # 45033P) (PharMingen International).

For `C[C@H](CCC(=O)O)[C@H]1CC[C@H]2[C@@H]3[C@@H](O)C[C@@H]4C[C@H](O)CC[C@]4(C)[C@H]3CC[C@]12C` [UDCA, ursodeoxycholic acid], the “ability to repress CYP7A1” value (CYP7A1) is given as “does not repress”.
For `CN(CCOc1ccc(CC2SC(=O)NC2=O)cc1)c1ccccn1` (stereo not drawn) [rosiglitazone], the “decrease in the expression of CYP7A1” value (hepatic CYP7A1 mRNA) was 30%.
With TNFa the “expression of CYP7A1 by L35 cells” value ([1]; human TNFa alone, 24 h) was “repressed”.
For `C[C@H](CCC(=O)O)[C@H]1CC[C@H]2[C@@H]3[C@H](O)C[C@@H]4C[C@H](O)CC[C@]4(C)[C@H]3CC[C@]12C` [CDCA, chenodeoxycholic acid], the “induction of TNFα, TGF-β1 and IL1β mRNAs by THP-1 cells” value [2] is listed as over 10 fold, the “CYP7A1 expression by L35 cells” value ([1]; CDCA 100 μM added directly to L35 cells, 24 hours) is listed as “unaffected” and the “ability to repress CYP7A1” value (CYP7A1) is listed as “potent repressor”.
